Patent publication US12036222B2, “Methods of treating cancers overexpressing CARM1 with EZH2 inhibitors and a PARP inhibitor” (The Wistar Institut of Anatomy and Biology, priority 2018, dated 2024)

How the values were obtained:
[1] = biological target: T1, PRC2 subunits EZH2 and SUZ12 interaction (Homo sapiens, UniProt Q15910); assay: Immunoprecipitation of EZH2 and immunoblot for SUZ12; assay type: cell-based; conditions: A1847 cells, 10 μM GSK126, 7 days
T1 construct: endogenous in cells; host or cells: A1847 cells (CARM1-high)
Protocol: A1847 cells were treated with 10 μM GSK126 or vehicle control for 7 days. The cells were subjected to immunoprecipitation (IP) analysis by using an anti-EZH2 antibody. The immunoprecipitated product was examined for EZH2 and SUZ12 expression by immunoblot. An isotype-matched IgG was used as a control.

[2] = test system: tumors formed by CARM1 knockout cells; assay: Immunohistochemistry and qRT-PCR of dissected CARM1 knockout tumors; assay type: in vivo, mice
Protocol: FIGS. 82 to 84 illustrate immunohistochemical analysis for serial sections of tumors dissected from mice injected with CARM1 knockout A1847 cells. Serial sections of tumors dissected from the indicated treatment groups described in FIGS. 73 to 75 were subjected to immunohistochemical staining for H3K27Me3, EZH2, cleaved caspase 3, and Ki67 (FIG. 82). Scale bar=50 μm. Histological score (H-score) of the indicated proteins was calculated for 3 separate fields from 5 tumors from 5 individual mice from each of the indicated groups (FIG. 83). Expression of the indicated EZH2/BAF155 target genes was determined by qRT-PCR in the tumors dissected from the indicated treatment groups (FIG. 84).
The observed tumor growth suppression in vivo was correlated with the molecular pathways underlying the CARM1-dependent effects of EZH2 inhibition. To do so, immunohistochemical (IHC) analysis was performed for markers of cell proliferation (Ki67), apoptosis (cleaved caspase 3), H3K27Me3 and EZH2. […] Finally, the observed decrease in cell proliferation and increase in apoptosis correlated with the upregulation of the identified CARM1-regulated EZH2/BAF155 target genes such as DAB2, DLC1 and NOXA by the EZH2 inhibitor GSK126 in vivo (FIG. 81).

NHEJ genes = assay: Expression of NHEJ genes; assay type: cell-based; conditions: CARM1 expressing cells
TIMP3 = assay: qRT-PCR of BAF155Me target gene in cells; assay type: cell-based, human; conditions: parental and CARM1 knockout A1847 cells, 10 μM GSK126
Protocol: FIG. 57 illustrates the relative mRNA expression of BAF155Me target gene TIMP3, which was determined by qRT-PCR. Parental control and CARM1 knockout A1847 cells were treated with 10 μM GSK126 or vehicle controls. *p<0.001. Mean of three independent experiments with SEM.
(§1) RNA was isolated by RNeasy Mini Kit (Qiagen). mRNA relative expression for DAB2, DLC1, and PMAIP was determined using SYBR green 1-step iScript (Bio-Rad) with a Life Technologies QuantStudio 3. The primers were: 5′-[…]-3′ (DAB2 forward (SEQ ID NO: 2)) and 5′-[…]-3′ (DAB2 reverse (SEQ ID NO: 3)); 5′-[…]-3′ (DLC1 forward (SEQ ID NO: 4)) and 5′-[…]-3′ (DLC1 reverse (SEQ ID NO: 5)); 5′-[…]-3′ (NOXA forward (SEQ ID NO: 6)) and 5′-[…]-3′ (NOXA reverse (SEQ ID NO: 7)); and 5′-[…]-3′ (TIMP3 forward (SEQ ID NO: 8)) and 5′-[…]-3′ (TIMP3 reverse (SEQ ID NO: 9)).

DAB2, DLC1, and NOXA = assay: qRT-PCR of EZH2/BAF155 target genes in cells; assay type: cell-based, human; conditions: 10 μM GSK126
Protocol: FIG. 55 illustrates the relative expression of DAB2, DLC1, and NOXA in parental control and CARM1 knockout A1847 cells that were treated with 10 μM GSK126 or vehicle controls. mRNA expression of the indicated genes was determined by qRT-PCR. *p<0.002 compared with parental controls.
FIG. 56 illustrates the relative expression of DAB2, DLC1, and NOXA in CARM1 high OVCAR10 cells treated with 10 μM GSK126 or vehicle control for 7 days. Expression of the indicated BAF155/EZH2 target genes was determined by qRT-PCR. *p<0.001. Mean of three independent experiments with SEM.
as §1

EZH2 = biological target: T2, EZH2 (Homo sapiens, UniProt Q15910); assay: Immunoblot of A1847 cells treated with GSK126 (H3K27Me3 as readout of EZH2 activity); assay type: cell-based; parameters: inhibition of the enzymatic activity of EZH2 as indicated by the decrease in H3K27Me3 levels: dose or concentration left out as unconfirmed; conditions: 72 hours
T2 construct: endogenous in cells; host or cells: A1847 cells (CARM1-high epithelial ovarian cancer line)
Protocol: FIG. 32 illustrates that the EZH2 inhibitor GSK126 decreases H3K27Me3 levels in a dose-dependent manner. A1847 cells were treated with the indicated concentrations of GSK126 for 72 hours and examined for expression of the indicated proteins by immunoblot. Expression of histone H3 and 3-actin was used as a loading control.

TIMP3 promoter = assay: ChIP-qPCR at TIMP3 promoter; assay type: cell-based, human; conditions: A1847 cells, 10 μM GSK126
Protocol: FIGS. 62 to 65 illustrate the results of a ChIP analysis in parental control and CARM1 knockout A1847 cells treated with 10 μM GSK126 or vehicle controls. The cells were subjected to ChIP analysis using anti-EZH2 (FIG. 62), anti-H3K27Me3 (FIG. 63), anti-BAF155 (FIG. 64), or anti-RNA Pol II (FIG. 65) antibodies. An isotype-matched IgG was used as a negative control. ChIP products were subjected to qPCR analysis using primers specific for the promoter regions of the human TIMP3 genes. Mean of three independent experiments with SEM.* p<0.001 compared with controls.
ChIP was performed as described in Tu et al. Developmental Cell(2011) 21:1077-91. The following antibodies were used to perform ChIP: anti-H3K27Me3 (Cell Signaling, Cat. No: 9733), anti-BAF155 (Santa Cruz, Cat. No: sc-9746), anti-RNA polymerase II (Santa Cruz, Cat. No: sc-899) or anti-EZH2 (Cell Signaling, Cat. No: 5246). An isotype matched IgG was used as a negative control. ChIP DNA was analyzed by quantitative PCR against the promoter of the indicated genes using the following primers: DAB2 Forward: 5′-[…]-3′ (SEQ ID NO: 10) and DAB2 Reverse: 5′-[…]-3′ (SEQ ID NO: 11); DLC1 Forward: 5′-[…]-3′ (SEQ ID NO: 12) and DLC1 Reverse: 5′-[…]-3′ (SEQ ID NO: 13); NOXA Forward: 5′-[…]-3′ (SEQ ID NO: 14) and NOXA Reverse: 5′-[…]-3′ (SEQ ID NO: 15); TIMP3 Forward: 5′-[…]-3′ (SEQ ID NO: 16) and TIMP3 Reverse: 5′-[…]-3′ (SEQ ID NO: 17).

T2 sequence (Q15910 whole entry): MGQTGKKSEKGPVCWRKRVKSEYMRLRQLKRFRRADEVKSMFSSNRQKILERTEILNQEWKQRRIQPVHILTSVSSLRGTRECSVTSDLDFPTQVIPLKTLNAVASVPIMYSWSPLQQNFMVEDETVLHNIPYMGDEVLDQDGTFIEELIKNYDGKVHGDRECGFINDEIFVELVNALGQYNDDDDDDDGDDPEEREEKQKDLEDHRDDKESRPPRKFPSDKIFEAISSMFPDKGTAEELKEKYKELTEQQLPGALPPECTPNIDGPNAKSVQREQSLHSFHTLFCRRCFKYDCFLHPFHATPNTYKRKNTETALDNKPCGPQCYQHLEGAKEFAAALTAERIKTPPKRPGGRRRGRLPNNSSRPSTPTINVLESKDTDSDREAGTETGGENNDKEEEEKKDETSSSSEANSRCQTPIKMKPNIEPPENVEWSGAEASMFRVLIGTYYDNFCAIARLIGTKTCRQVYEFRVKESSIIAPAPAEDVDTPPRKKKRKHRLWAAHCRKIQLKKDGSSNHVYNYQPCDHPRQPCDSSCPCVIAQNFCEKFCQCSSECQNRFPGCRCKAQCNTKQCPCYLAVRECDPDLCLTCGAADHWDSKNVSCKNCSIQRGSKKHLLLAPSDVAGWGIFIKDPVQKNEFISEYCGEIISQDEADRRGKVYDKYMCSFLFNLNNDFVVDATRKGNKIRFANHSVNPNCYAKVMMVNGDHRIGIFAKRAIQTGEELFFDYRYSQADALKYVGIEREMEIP
T2 sequence (Q15022 whole entry partner): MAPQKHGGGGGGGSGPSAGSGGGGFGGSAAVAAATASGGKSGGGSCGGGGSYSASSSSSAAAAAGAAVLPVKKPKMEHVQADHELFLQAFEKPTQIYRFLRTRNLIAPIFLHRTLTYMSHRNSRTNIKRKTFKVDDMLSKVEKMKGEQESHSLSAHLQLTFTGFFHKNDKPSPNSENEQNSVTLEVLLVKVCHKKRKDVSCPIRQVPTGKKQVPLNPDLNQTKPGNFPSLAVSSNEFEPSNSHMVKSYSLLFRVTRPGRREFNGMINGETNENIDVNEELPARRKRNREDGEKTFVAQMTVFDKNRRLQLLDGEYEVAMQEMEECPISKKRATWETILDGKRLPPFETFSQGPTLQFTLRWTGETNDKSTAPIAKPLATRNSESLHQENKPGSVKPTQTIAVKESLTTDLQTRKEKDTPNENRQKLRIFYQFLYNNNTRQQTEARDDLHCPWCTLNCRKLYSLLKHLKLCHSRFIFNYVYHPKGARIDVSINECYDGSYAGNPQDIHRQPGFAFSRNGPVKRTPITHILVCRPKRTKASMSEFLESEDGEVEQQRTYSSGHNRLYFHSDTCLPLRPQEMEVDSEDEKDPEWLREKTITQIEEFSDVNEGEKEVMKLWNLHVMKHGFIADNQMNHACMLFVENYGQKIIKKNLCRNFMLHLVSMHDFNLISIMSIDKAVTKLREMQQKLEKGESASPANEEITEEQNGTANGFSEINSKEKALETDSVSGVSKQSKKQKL
T2 sequence (O75530 whole entry partner): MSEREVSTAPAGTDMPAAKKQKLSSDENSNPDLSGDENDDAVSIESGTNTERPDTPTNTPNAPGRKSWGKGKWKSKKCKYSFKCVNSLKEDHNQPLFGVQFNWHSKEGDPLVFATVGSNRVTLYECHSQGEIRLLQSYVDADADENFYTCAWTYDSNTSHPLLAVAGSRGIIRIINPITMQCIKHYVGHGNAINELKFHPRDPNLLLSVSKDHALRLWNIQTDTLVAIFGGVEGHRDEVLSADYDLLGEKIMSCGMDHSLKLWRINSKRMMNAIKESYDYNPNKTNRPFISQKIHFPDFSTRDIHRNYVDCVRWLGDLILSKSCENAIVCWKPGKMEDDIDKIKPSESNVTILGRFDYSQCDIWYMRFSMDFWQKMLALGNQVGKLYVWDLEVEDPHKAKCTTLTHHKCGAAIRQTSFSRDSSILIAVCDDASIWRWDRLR
T1 sequence (Q15910 whole entry): as the sequence (Q15910 whole entry) above
T1 sequence (Q15022 whole entry partner): as the sequence (Q15022 whole entry partner) above
T1 sequence (O75530 whole entry partner): as the sequence (O75530 whole entry partner) above

SMILES: CC[C@H](C)n1cc(C)c2c(C(=O)NCc3c(C)cc(C)[nH]c3=O)cc(-c3ccc(N4CCNCC4)nc3)cc21 [GSK126, (S)-1-(sec-butyl)-N-((4,6-dimethyl-2-oxo-1,2-dihydropyridin-3-yl)methyl)-3-methyl-6-(6-(piperazin-1-yl)pyridin-3-yl)-1H-indole-4-carboxamide]
- interaction between PRC2 subunits EZH2 and SUZ12 [1]: did not weaken the interaction
- H3K27Me3 ([2]; IHC): reduction of H3K27Me3
- expression of Ki67 ([2]; IHC): did not affect the expression
- expression of cleaved caspase 3 ([2]; IHC): did not affect the expression
- expression of CARM1 regulated EZH2/BAF155 target genes ([2]; qRT-PCR): did not increase the expression
- expression of NHEJ genes (NHEJ genes): restores the expression of NHEJ genes
- expression of BAF155Me target gene TIMP3 (TIMP3): downregulated by CARM KO but not by EZH2 inhibitor GSK126
- expression of identified EZH2/BAF155 target genes (DAB2, DLC1, NOXA) (DAB2, DLC1, and NOXA; A1847, OVCAR10 cells): upregulated
- additivity of GSK126 treatment and CARM1 knockout on target gene expression (DAB2, DLC1, and NOXA; CARM1 knockout A1847 cells): did not appear to have additive effects
- EZH2 protein levels (EZH2): did not affect EZH2 protein levels
- expression of CARM1 (EZH2): did not affect the expression of CARM1
- inhibition of the enzymatic activity of EZH2 as indicated by the decrease in H3K27Me3 levels (EZH2): > 95%
- H3K27Me3 levels (EZH2; indicated concentrations): dose-dependent decrease in H3K27Me3 levels
- association of BAF155 and Pol II with the TIMP3 promoter (TIMP3 promoter): CARM1 KO but not EZH2 inhibitor GSK126 treatment decreased the association
